For assay [1] the following is noted: previously reported; read-out: KD for LMWH; cited from earlier work. The method, then: To obtain more insight in the contribution of the unique COOH-terminal region of CXCL9 and in the specificity of CXCL9-derived peptides for different GAGs, the affinity of CXCL9(74–93) for LMWH, HS, and CS was determined by IFT. […] A biphasic binding isotherm was obtained when titrating CXCL9(74-93) with HS, indicating more than one binding site for the peptide on this GAG. Fitting only the initial high-affinity phase, a KD ...

The subject of assay [2] is CXCL8-induced neutrophil migration. The note with it: CXCL8 into tibiofemoral articulation of C57BL/6 mice; cited from earlier work.
The subject of assay [3] is MSU crystal-induced neutrophil migration. Nature of the assay: MSU crystal-induced gout in mice (neutrophil migration to knee). Conditions: 66 µg peptide i.v.; MSU crystals 100 µg, C57BL/6, 3 h, n ≥ 5; Figure 5. It counts as in vivo, mouse (C57BL/6). The method, then:
Monosodium urate crystals were prepared as described previously ([42], [49]) and were injected (100 µg in 10 µl) in the tibiofemoral knee joint of C57Bl/6 mice. A group of mice received CXCL9 peptide or vehicle intravenously and the cells present in the tibiofemoral articulation were harvested 3 h after MSU crystal administration. The total and differential leukocyte counts were determined.
Figure 5 CXCL9(74-93) inhibits CXCL8-induced but not monosodium urate (MSU) crystal-induced neutrophil migration to the knee cavity. CXCL8(1-77) (1 µg) or MSU crystals (100 µg) were injected into the tibiofemoral articulation of C57BL/6 mice (n ≥ 5). Simultaneously, 66 µg of CXCL9(74-93) was injected intravenously and 3 h post injection the number of total cells (A) and neutrophils (B) were evaluated by washing the cavity and differentially counting the leukocyte subtypes on May-Grunwald-Giemsa-stained cytospins. The total numbers of leukocytes and neutrophils are shown for every individual mouse, and the horizontal lines denote the median number of cells. To detect statistically significant differences, the Mann–Whitney U-test was carried out (*p < 0.05; **p < 0.01; ***p < 0.005).

As to “74KKKQKNGKKHQKKKVLKVRKSQRSRQKKTT103 [CXCL9(74-103), COOH-terminal peptide of CXCL9]”, the Kd (as a rule, a measure of binding affinity in units of concentration) in assay [1] is 61 nM. The “inhibition of neutrophil chemotactic activity of CXCL8 in the tibiofemoral articulation” value in assay [2] is given as “could inhibit the neutrophil chemotactic activity of CXCL8 in vivo”.
For the substance “74KKKQKNGKKHQKKKVLKVRK93 [CXCL9(74-93), COOH-terminal peptide of CXCL9 lacking the 10 COOH-terminal amino acids of CXCL9(74-103)]”, in assay [3], the “inhibition of MSU crystal-induced neutrophil migration to the joint” value is reported as “could not inhibit MSU crystal-induced neutrophil migration to the joint”.

The values above are taken from publication PMC5423902, “CXCL9-Derived Peptides Differentially Inhibit Neutrophil Migration In Vivo through Interference with Glycosaminoglycan Interactions” (Frontiers in Immunology, 2017).
